Tested on: M. tuberculosis H37Rv growth inhibition
Assay: M. tuberculosis H37Rv growth inhibitors, H37Rv strain (AID 1626)
Conditions: for IC90: measured here: IC90 against H37Rv; for CC50: measured here: Vero cell cytotoxicity

Row | Structure (SMILES) | IC50 [µM] | IC90 [µM] | CC50 [µM]
1 | COc1ccc(NCC(=O)Nc2ccc(Cl)cc2C)c(OC)c1 | 27.4 | > 100 | 
2 | CCOC(=O)c1c(NC(=O)C2COc3ccccc3O2)sc2c1CC(C)(C)NC2(C)C (stereo not given) | 12.6 | 13.7 | 
3 | COc1ccc(-c2cc3nc(C)c(CCC(=O)NCc4ccc(F)cc4)c(C)n3n2)c(OC)c1 |  |  | > 40
4 | Cc1nc2ccc(NC(=O)COc3cccc(F)c3)cc2s1 | 20.6 | > 100 | 
5 | O=C(CNC(=O)/C(=C/c1ccccc1)NC(=O)c1ccc(Br)cc1)OCc1ccccc1 | 4.09 | 6.63 | 15.3
6 | O=C(Oc1ccccc1Cl)c1ccc(N2CCOCC2)c([N+](=O)[O-])c1 | 4.09 | 11.1 | 
7 | CC(C)(C)C1CCc2c(sc3nc(SCC(N)=O)nc(N)c23)C1 (stereo not given) | 24.8 | > 100 | > 40
8 | O=C(C1CCN(c2nnc(-n3cccc3)s2)CC1)N1CCc2ccccc2C1 | 0.701 | 0.937 | 
9 | CN1C[C@@H]2C(c3ccc(C(F)(F)F)cc3)C3(c4cccnc4)CC2(C3)[C@H]1c1ccccc1 (stereo not given in full) | 14.1 | 21.4 | 
10 | Cc1nc2c(-c3ccc(Cl)cc3)c(C)[nH]n2c(=O)c1Cc1ccccc1 | 1.98 | 9.69 | 4.04
11 | CCOc1ccc(-c2nnc(SCC(=O)Nc3cc(C)on3)o2)cc1 | 1.63 | 1.95 | > 40
12 | Nc1ccc2c(c1)oc1ccccc12 | 1.96 | > 100 | 
13 | COc1ccc(NC2=NCC(Cc3ccc(Br)cc3)S2)cc1 (stereo not given) | 10.2 | 15.9 | > 40
14 | Cc1c(Cl)c([N+](=O)[O-])nn1CCCC(=O)Nc1cc(Oc2ccccc2)cc([N+](=O)[O-])c1 | 6.86 | 10.5 | 28.7
15 | CC(C)C(=O)N1CCN(c2ccc(NC(=O)c3ccc4c(c3)OCCO4)cc2Cl)CC1 |  | > 100 | 19.8
16 | O=C(Nc1cc(Cl)cc(Cl)c1)N1CCCC1 | 12.2 | 17.6 | > 40
17 | CC1CCN(C(=O)COC(=O)CCc2c[nH]c3ccccc23)CC1 | 0.34 | > 100 | 
18 | Oc1c(Cl)cc(Cl)c2cccnc12 | 0.779 | 0.858 | 11.9
19 | CN(Cc1nc2ccccc2c(=O)[nH]1)Cc1nc2ccsc2c(=O)[nH]1 | 1.95 | 4.36 | 
20 | OC(COC(c1ccc(Cl)cc1)c1ccc(Cl)cc1)CN1CCN(c2ccccn2)CC1 (stereo not given) | 9.79 | 28.3 | 35.3

Row | Structure (SMILES) | IC50 [µM] | IC90 [µM] | CC50 [µM]
21 | OC(c1cc(-c2ccc(Cl)cc2)nc2ccccc12)C1CCCCN1 (stereo not given) | 4.52 | 13.5 | 7.35
22 | Cc1ccc(-c2c[n+](CC(=O)Nc3nc(-c4ccccc4)cs3)c3n2CCC3)cc1 | 7.81 | 16.1 | 
23 | CN(C)CCNC(=O)/C(=C/c1ccc(-c2ccc(Cl)cc2Cl)o1)NC(=O)c1ccccc1 | 10.5 | 11.6 | 10.2
24 | O=C(Nc1nc(-c2ccccn2)cs1)c1cc2ccccc2o1 | 2.62 | 42.6 | > 40
25 | Cc1sc(N)nc1-c1ccccc1 |  | > 100 | 
26 | COc1ccc2cc(-c3[nH]ncc3CN3CCCN(c4ccccc4)CC3)ccc2c1 | 9.35 | 15.4 | > 40
27 | CCn1c([N+](=O)[O-])nc2c1c(=O)[nH]c(=O)n2C | 0.823 | 1.64 | 11.6
28 | O=C(Cc1cccs1)N1CCN=C1SCc1ccc(Br)cc1 |  | > 100 | 
29 | O=C(Nc1nc2ccccc2s1)C1c2ccccc2Oc2ccccc21 |  | > 100 | > 40
30 | Cc1cnc(C(=O)Nc2nnc(SCc3c(Cl)cccc3Cl)s2)cn1 | 8.19 | > 100 | 35.5
31 | CCOc1ccc2nc(/N=C/c3nc(-c4ccccc4)oc3O)sc2c1 | 6.82 | > 100 | 
32 | O=C(Nc1cccnc1)c1cc2cc(Br)ccc2oc1=O |  | > 100 | 
33 | O=C(CN1C(=O)C2C3CCC(C3)C2C1=O)Oc1ccc2ccccc2c1 (stereo not given) |  | > 100 | 
34 | CC1CCN(c2nc(CN3CCCCC3)nc3scc(-c4ccccc4)c23)CC1 | 9.11 | 11.9 | 34.9
35 | Cc1cc(C)cc(NC(=O)c2ccc([N+](=O)[O-])o2)c1 | 9.59 | 22.6 | 9.81
36 | Cc1nn(-c2ccccc2)nc1C(=O)c1c(C)[nH]n(-c2ccccc2)c1=O | 8.35 | 13.6 | 37
37 | O=C(NCCc1c[nH]c2ccccc12)c1cc2ccccc2oc1=O | < 0.195 | < 0.195 | 
38 | CCCc1nnc(NC(=O)c2c(O)c3cccc4c3n(c2=O)CCC4)s1 | < 0.391 | < 0.391 | 25.6
39 | COc1ccc2ncc(OC(C)=O)cc2c1 |  | > 100 | 
40 | Cc1cc(C)n(-c2nc(NC(C)(C)C)nc(NC(C)(C)C)n2)n1 | < 0.195 | 21 | > 40

Row | Structure (SMILES) | IC50 [µM] | IC90 [µM] | CC50 [µM]
41 | CCOC(=O)c1ccc(NC(=O)CCc2c(C)nc3ncnn3c2C)cc1 |  | > 100 | 
42 | COc1cccc2sc(N(CCCN(C)C)C(=O)C(c3ccccc3)c3ccccc3)nc12 | 13.5 | 18.4 | 21.8
43 | COc1ccccc1-c1nnc(NC(=O)C2=COCCO2)o1 | 8.99 | 15.5 | > 40
44 | Cc1ccc(S(=O)(=O)Nc2ccc(NC(=O)c3c(F)c(F)c(F)c(F)c3F)cc2)cc1 |  |  | 21.8
45 | OC(CNCCC1C=Nc2ccccc21)Cn1c2ccc(Cl)cc2c2cc(Cl)ccc21 (stereo not given) | 1.82 | 2.03 | 5.96
46 | O=C(COc1ccccc1[N+](=O)[O-])c1ccccc1 | 17 | > 100 | 30
47 | Cc1cc(C(=O)Cn2cncn2)c(C)n1CCc1ccc(F)cc1 |  | > 100 | 
48 | CCOC(=O)c1ccc(NC(=O)CCc2ccc(CC)o2)cc1 | 2.25 | 17.2 | 
49 | O=C(/C=C/c1ccccc1F)c1cccc([N+](=O)[O-])c1 | 6.24 | 6.73 | > 40
50 | CCCCCCCCOC(=O)c1c(CSC(=N)N)n(C)c2cc(Br)c(OC(C)=O)cc12 | 11.4 | 15 | 
51 | CCOC(=O)c1ccc(N2CSC3=C(C#N)C(c4ccc(OC)cc4OC)CC(=O)N3C2)cc1 (stereo not given) | 41.8 | > 100 | 
52 | CNc1cc(C(F)(F)F)nc(-c2ccccn2)n1 | 40.7 | > 100 | 
53 | Nc1cc2nc3ccccc3oc-2cc1=O | 0.368 | 0.916 | > 40
54 | Cc1cc(Oc2ccc(Cl)cc2)nc(-c2ccccn2)n1 | 14.5 | > 100 | 21.1
55 | Fc1ccc(-c2nnc(CSc3nnc(-c4cccs4)o3)o2)cc1 |  | > 100 | 
56 | COc1cc(NC(=O)c2c(F)c(F)c(F)c(F)c2F)c(OC)cc1Cl | 0.738 | > 100 | > 40
57 | Clc1ccc2c(c1)C1=C(C(c3ccncc3)O2)C(c2ccc(Br)cc2)n2ncnc2N1 (stereo not given) | 2.91 | 3.29 | > 40
58 | Cc1ccc(OCc2nnc(SCc3cc(=O)[nH]c4ccccc34)n2-c2ccccc2)cc1 | 27.8 | > 100 | > 40
59 | CCOC(=O)N1CCN(C(=O)CSc2nnc(-c3cc(OC)cc(OC)c3)o2)CC1 | 2.82 | 7.03 | 
60 | CCOC(=O)c1ccc(NC(=O)CN2C(=O)C(=O)N(CC(C)C)C2=O)cc1 | < 0.195 | > 100 | 

From PubChem BioAssay AID1626 (SRMLSC, 2009)
